# Data published in ChEMBL document CHEMBL3046682, “Synthesis of lactosylated piperazinyl porphyrins and their hepatocyte-selective targeting” (Med Chem Res, 2007).
# Columns and labels:
# Liver [1] = experiment: Biodistribution in tumor-bearing Mus musculus KM (mouse) liver at 10 mg/kg, ip after 3 to 24 hr by fluorescence assay; format: ADME, organism-based; parameters: dose 10 mg/kg, route intraperitoneal; details: in vivo
# Zone of skin = experiment: Biodistribution in tumor-bearing Mus musculus KM (mouse) skin at 10 mg/kg, ip after 3 to 24 hr by fluorescence assay; format: ADME, organism-based; parameters: dose 10 mg/kg, route intraperitoneal; details: in vivo
# Liver [2] = experiment: Biodistribution in tumor-bearing Mus musculus KM (mouse) liver at 10 mg/kg, ip after 144 hr by fluorescence assay; format: ADME, organism-based; parameters: dose 10 mg/kg, route intraperitoneal; details: in vivo
# [3] = Cytotoxicity against Homo sapiens (human) Bel7404 cells assessed as cell death at 6.25 ug/ml after 18 hr by MTT assay in absence of light; format: functional, BEL-7404
# [4] = Cytotoxicity against Homo sapiens (human) MCG cells assessed as cell death after 48 hr by MTT assay in absence of light; format: functional; details: read-out: ID50 (the source's name)
# [5] = Cytotoxicity against Homo sapiens (human) MCG cells assessed as cell death at 6.25 ug/ml after 18 hr by MTT assay in absence of light; format: functional
# [6] = Photocytotoxicity against Homo sapiens (human) Bel7404 cells assessed as cell death at 6.25 ug/ml after 18 hr by MTT assay in presence of light; format: functional, BEL-7404
# [7] = Photocytotoxicity against Homo sapiens (human) HNE1 cells assessed as cell death at 6.25 ug/ml after 18 hr by MTT assay in presence of light; format: functional
# [8] = Photocytotoxicity against Homo sapiens (human) MCG cells assessed as cell death at 6.25 ug/ml after 18 hr by MTT assay in presence of light; format: functional
# [9] = Cytotoxicity against Homo sapiens (human) HNE1 cells assessed as cell death at 6.25 ug/ml after 18 hr by MTT assay in absence of light; format: functional
# [10] = Cytotoxicity against Homo sapiens (human) HNE1 cells assessed as cell death after 48 hr by MTT assay in absence of light; format: functional; details: HNE1, 48 h, read-out: ID50 (the source's name)
# [11] = Cytotoxicity against Homo sapiens (human) Bel7404 cells assessed as cell death after 48 hr by MTT assay in absence of light; format: functional; details: BEL-7404, 48 h, read-out: ID50 (the source's name)
# [12] = Solubility of the compound in water; format: physicochemical; details: buffer
Drug uptake (Liver [1]),Drug uptake (Zone of skin),Drug uptake (Liver [2]),solubility [12],Compound,Activity [3],IC50 [4],Activity [5],Activity [6],Activity [7],Activity [8],Activity [9],IC50 [10],IC50 [11]
Active,Not Active,Not Active,,O=C([C@H](O)[C@@H](O)[C@H](O[C@@H]1O[C@H](CO)[C@H](O)[C@H](O)[C@H]1O)[C@H](O)CO)N1CCN(c2ccc(-c3c4nc(c(-c5ccc(N6CCN(C(=O)[C@H](O)[C@@H](O)[C@H](O[C@@H]7O[C@H](CO)[C@H](O)[C@H](O)[C@H]7O)[C@H](O)CO)CC6)cc5)c5ccc([nH]5)c(-c5ccc(N6CCN(C(=O)[C@H](O)[C@@H](O)[C@H](O[C@@H]7O[C@H](CO)[C@H](O)[C@H](O)[C@H]7O)[C@H](O)CO)CC6)cc5)c5nc(c(-c6ccc(N7CCN(C(=O)[C@H](O)[C@@H](O)[C@H](O[C@@H]8O[C@H](CO)[C@H](O)[C@H](O)[C@H]8O)[C@H](O)CO)CC7)cc6)c6ccc3[nH]6)C=C5)C=C4)cc2)CC1,,,,,,,,,
,,,,O=C([C@H](O)[C@@H](O)[C@H](O[C@@H]1O[C@H](CO)[C@H](O)[C@H](O)[C@H]1O)[C@H](O)CO)N1CCN(c2ccc(-c3c4nc(c(-c5ccccc5)c5ccc([nH]5)c(-c5ccccc5)c5nc(c(-c6ccccc6)c6ccc3[nH]6)C=C5)C=C4)cc2)CC1,8%,48 µg/mL,8%,75%,75%,75%,8%,46 µg/mL,43 µg/mL
,,,Insoluble,C1=Cc2nc1c(-c1ccccc1)c1nc(c(-c3ccccc3)c3ccc([nH]3)c(-c3ccccc3)c3ccc([nH]3)c2-c2ccccc2)C=C1 [TETRAPHENYLPORPHYRIN],,> 50 µg/mL,,,,,,> 50 µg/mL,> 50 µg/mL
